Reference: patent publication US20230416330A1, “Optimized GIP Peptide Analogues” (Antag Therapeutics ApS, priority 2019, published 2023)
Starred links: 1 amine or outer side, 2 acyl side, 3 side chain; linkers in the order of their positions; H or OH if unused. Non-standard residues stand in square brackets, D forms with d. Residues, ends and D or L forms follow the SMILES beside them. Groups on a side chain read outwards from the residue. *: point of attachment. C18 diacid = O=C(O)CCCCCCCCCCCCCCCCC(=O)*; C16 diacid = O=C(O)CCCCCCCCCCCCCCC(=O)*; γGlu = O=C(O)[C@H](CCC(=O)[*:2])N[*:1]; Glutaryl = O=C(CCCC(=O)[*:2])[*:1]; AEEA = NCCOCCOCC(=O)O; Aib = CC(C)(N)C(=O)O

Columns and labels:
[1] = target: T1, human GIP receptor (Homo sapiens, UniProt P48546); assay: cAMP assay Alternative 1 (CisBio assay), GIPR antagonism; assay type: cell-based; conditions: for cAMP antagonism % inhib: Table 2B, % inhibition of Emax
T1 construct: host or cells: HEK-293 cells, transient transfection (Lipofectamine 2000), cDNA in pCMV-Script vector
T1 sequence (P48546 22-466): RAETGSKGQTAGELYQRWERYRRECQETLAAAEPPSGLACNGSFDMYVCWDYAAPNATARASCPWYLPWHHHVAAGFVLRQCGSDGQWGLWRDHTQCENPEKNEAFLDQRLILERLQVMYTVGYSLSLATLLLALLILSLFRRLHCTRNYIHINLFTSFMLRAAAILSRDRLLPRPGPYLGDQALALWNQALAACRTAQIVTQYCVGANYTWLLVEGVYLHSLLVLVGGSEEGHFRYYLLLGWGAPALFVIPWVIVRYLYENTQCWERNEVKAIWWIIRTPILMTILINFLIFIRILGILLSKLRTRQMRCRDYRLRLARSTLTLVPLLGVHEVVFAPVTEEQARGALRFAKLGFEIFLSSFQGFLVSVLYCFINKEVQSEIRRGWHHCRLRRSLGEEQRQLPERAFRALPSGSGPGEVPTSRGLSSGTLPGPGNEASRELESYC
Outline: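 HEK293 cells transiently transfected with hGIPR, compounds diluted in HBSS/HEPES/pluronic/casein with 500 uM IBMX; decrease in intracellular cAMP read by HTRF (665/620 nm) and converted via cAMP standard curve. pIC50 from four-parameter fit; agonism tested separately after 30 min at 37° C.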

[2] = Physical stability: fibril formation in Thioflavin T (ThT) assay with agitation; assay type: physicochemical; conditions: 25° C., agitation
Outline: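 Read-out is continuous ThT fluorescence at 486 nm, with lag time taken where signal reaches 10% between pre- and post-transition baselines. Filtered samples (1, 5, 7.5 or 15 mg/ml; pH 7.4 phosphate buffer or NaOH-adjusted water) were stressed at 25° C. by orbital rotation at 300 rpm with one silica bead per well.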

[3] = Solubility by visual inspection of peptide solutions; assay type: physicochemical
Outline: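 Solubility scored by eye: clear, colorless appearance after gentle mixing. Samples prepared at 1, 5, 7.5 or 15 mg/ml in either pH 7.4 water (NaOH-adjusted) or 50 mM sodium phosphate buffer, pH 7.4.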

SMILES	cAMP antagonism % inhib [1]	Avr lag time (h) ([2]; 1 mg/ml, TFA, Phosphate (7.4))	Avr lag time (h) ([2]; 5 mg/ml, Na, MilliQ (8))	Avr lag time (h) ([2]; 7.5 mg/ml, Na, MilliQ (8))	Avr lag time (h) ([2]; 15 mg/ml, Na, MilliQ (8))	Visual appearance ([3]; 1 mg/ml, TFA, Phosphate (7.4))	Visual appearance ([3]; 5 mg/ml, Na, MilliQ (8))	Visual appearance ([3]; 7.5 mg/ml, Na, MilliQ (8))	Visual appearance ([3]; 15 mg/ml, Na, MilliQ (8))	IC50 [1]	Avr lag time ([2]; 1 mg/ml, Na, MilliQ (8))	Avr lag time ([2]; 1 mg/ml, TFA, Phosphate (7.4))
CC[C@H](C)[C@H](NC(=O)[C@H](CCCCN)NC(=O)[C@H](CCC(=O)O)NC(=O)[C@H](CC(C)C)NC(=O)C(C)(C)NC(=O)[C@@H](NC(=O)[C@H](CO)NC(=O)[C@H](Cc1ccc(O)cc1)NC(=O)[C@H](CCC(=O)O)NC(=O)[C@H](CO)NC(=O)[C@@H](NC(=O)[C@H](Cc1ccccc1)NC(=O)[C@@H](NC(=O)CNC(=O)[C@@H](N)CCC(=O)O)[C@@H](C)O)[C@@H](C)CC)[C@@H](C)CC)C(=O)N[C@@H](CCCCNC(=O)CCCCCCCCCCCCCCC(=O)O)C(=O)N[C@@H](CCC(N)=O)C(=O)N[C@@H](CCC(N)=O)C(=O)N[C@@H](CCC(=O)O)C(=O)N[C@@H](Cc1ccccc1)C(=O)N[C@H](C(=O)N[C@@H](CCC(=O)O)C(=O)N[C@@H](Cc1c[nH]c2ccccc12)C(=O)N[C@@H](CC(C)C)C(=O)N[C@@H](CC(C)C)C(=O)N[C@@H](C)C(=O)N[C@@H](CCC(N)=O)C(=O)N[C@@H](CCCCN)C(=O)N1CCC[C@H]1C(=O)N[C@@H](CO)C(=O)N[C@@H](CO)C(=O)NCC(=O)N[C@@H](C)C(=O)N1CCC[C@H]1C(=O)N1CCC[C@H]1C(=O)N1CCC[C@H]1C(=O)N[C@@H](CO)C(=O)O)C(C)C [AT673] (H-EGTFISEYSI[Aib]LEKIK(C16 diacid)QQEFVEWLLAQKPSSGAPPPS-OH; N-terminus assumed)	94%	fnd (Fnd = fibrils not detected within experiment time (96 hours) with agitation.)	fnd (Fnd = fibrils not detected within experiment time (96 hours) with agitation.)	fnd (Fnd = fibrils not detected within experiment time (96 hours) with agitation.)	fnd (Fnd = fibrils not detected within experiment time (96 hours) with agitation.)	Clear	Clear	Clear	Clear	–	–	–
CC[C@H](C)[C@H](NC(=O)[C@H](CCCCN)NC(=O)[C@H](CC(=O)O)NC(=O)[C@H](CC(C)C)NC(=O)C(C)(C)NC(=O)[C@@H](NC(=O)[C@H](CO)NC(=O)[C@H](Cc1ccc(O)cc1)NC(=O)[C@H](CC(=O)O)NC(=O)[C@H](CO)NC(=O)[C@@H](NC(=O)[C@H](Cc1ccccc1)NC(=O)[C@@H](NC(=O)CNC(=O)[C@@H](N)CCC(=O)O)[C@@H](C)O)[C@@H](C)CC)[C@@H](C)CC)C(=O)N[C@@H](CCCCNC(=O)COCCOCCNC(=O)COCCOCCNC(=O)CC[C@H](NC(=O)CCCCCCCCCCCCCCCCC(=O)O)C(=O)O)C(=O)N[C@@H](CCC(N)=O)C(=O)N[C@@H](CCC(N)=O)C(=O)N[C@@H](CC(=O)O)C(=O)N[C@@H](Cc1ccccc1)C(=O)N[C@H](C(=O)N[C@@H](CCC(=O)O)C(=O)N[C@@H](Cc1c[nH]c2ccccc12)C(=O)N[C@@H](CC(C)C)C(=O)N[C@@H](CC(C)C)C(=O)N[C@@H](C)C(=O)N[C@@H](CCC(N)=O)C(=O)N[C@@H](CCCCN)C(=O)N1CCC[C@H]1C(=O)N[C@@H](CO)C(=O)N[C@@H](CO)C(=O)NCC(=O)N[C@@H](C)C(=O)N1CCC[C@H]1C(=O)N1CCC[C@H]1C(=O)N1CCC[C@H]1C(=O)N[C@@H](CO)C(=O)O)C(C)C [AT685] (H-EGTFISDYSI[Aib]LDKIK([AEEA-AEEA-γGlu-C18 diacid])QQDFVEWLLAQKPSSGAPPPS-OH; N-terminus assumed)	83%	fnd (Fnd = fibrils not detected within experiment time (96 hours) with agitation.)	–	–	–	Clear	–	–	–	–	–	–
CC[C@H](C)[C@H](NC(=O)[C@H](CO)NC(=O)[C@H](Cc1ccc(O)cc1)NC(=O)[C@H](CC(=O)O)NC(=O)[C@H](CO)NC(=O)[C@@H](NC(=O)[C@H](Cc1ccccc1)NC(=O)[C@@H](NC(=O)CNC(=O)CCCC(=O)O)[C@@H](C)O)[C@@H](C)CC)C(=O)N[C@@H](C)C(=O)N[C@@H](CCSC)C(=O)N[C@@H](CC(=O)O)C(=O)N[C@@H](CCCCN)C(=O)N[C@H](C(=O)N[C@@H](CCCCNC(=O)CCCCCCCCCCCCCCC(=O)O)C(=O)N[C@@H](CCC(N)=O)C(=O)N[C@@H](CCC(N)=O)C(=O)N[C@@H](CC(=O)O)C(=O)N[C@@H](Cc1ccccc1)C(=O)N[C@H](C(=O)N[C@@H](CC(N)=O)C(=O)N[C@@H](Cc1c[nH]c2ccccc12)C(=O)N[C@@H](CC(C)C)C(=O)N[C@@H](CC(C)C)C(=O)N[C@@H](C)C(=O)N[C@@H](CCC(N)=O)C(=O)N[C@@H](CCCCN)C(=O)N1CCC[C@H]1C(=O)N[C@@H](CO)C(=O)N[C@@H](CO)C(=O)NCC(=O)N[C@@H](C)C(=O)N1CCC[C@H]1C(=O)N1CCC[C@H]1C(=O)N1CCC[C@H]1C(=O)N[C@@H](CO)C(=O)O)C(C)C)[C@@H](C)CC [AT677] (Glutaryl-GTFISDYSIAMDKIK(C16 diacid)QQDFVNWLLAQKPSSGAPPPS-OH)	93%	–	–	–	–	Clear	–	–	–	0.447 nM	<24 h	16.5 ± 2.3 h
CC[C@H](C)[C@H](NC(=O)[C@H](CO)NC(=O)[C@H](Cc1ccc(O)cc1)NC(=O)[C@H](CC(=O)O)NC(=O)[C@H](CO)NC(=O)[C@@H](NC(=O)[C@H](Cc1ccccc1)NC(=O)[C@@H](NC(=O)CNC(=O)[C@@H](N)CCC(=O)O)[C@@H](C)O)[C@@H](C)CC)C(=O)N[C@@H](C)C(=O)N[C@@H](CC(C)C)C(=O)N[C@@H](CC(=O)O)C(=O)N[C@@H](CCCCN)C(=O)N[C@H](C(=O)N[C@@H](CCCCNC(=O)CCCCCCCCCCCCCCC(=O)O)C(=O)N[C@@H](CCC(N)=O)C(=O)N[C@@H](CCC(N)=O)C(=O)N[C@@H](CC(=O)O)C(=O)N[C@@H](Cc1ccccc1)C(=O)N[C@H](C(=O)N[C@@H](CCC(=O)O)C(=O)N[C@@H](Cc1c[nH]c2ccccc12)C(=O)N[C@@H](CC(C)C)C(=O)N[C@@H](CC(C)C)C(=O)N[C@@H](C)C(=O)N[C@@H](CCC(N)=O)C(=O)N[C@@H](CCCCN)C(=O)N1CCC[C@H]1C(=O)N[C@@H](CO)C(=O)N[C@@H](CO)C(=O)NCC(=O)N[C@@H](C)C(=O)N1CCC[C@H]1C(=O)N1CCC[C@H]1C(=O)N1CCC[C@H]1C(=O)N[C@@H](CO)C(=O)O)C(C)C)[C@@H](C)CC [AT668] (H-EGTFISDYSIALDKIK(C16 diacid)QQDFVEWLLAQKPSSGAPPPS-OH; N-terminus assumed)	92%	fnd (Fnd = fibrils not detected within experiment time (96 hours) with agitation.)	–	–	–	Clear	–	–	–	–	–	–
